Details: 101.33 kPa, Liquid; for mass density: Vibrating tube method; for thermal conductivity: hot wire

CCCC[N+]1(C)CCCC1.N#CN=C=[N-] [1-butyl-1-methylpyrrolidinium dicyanamide]
Details | mass density [kg/m3] | thermal conductivity [W/m/K]
293.2 K | 1018.3 | –
293.5 K | – | 0.155
303.2 K | 1011.8 | 0.155
313.2 K | 1006.1 | –
313.3 K | – | 0.153
323.2 K | 1000.6 | –
323.3 K | – | 0.151
333.2 K | 995.6 | 0.147
343.2 K | 991.3 | –
343.4 K | – | 0.142

CCCCn1cc[n+](C)c1.N#CN=C=[N-] [1-butyl-3-methylimidazolium dicyanamide]
Details | mass density [kg/m3] | thermal conductivity [W/m/K]
293.2 K | 1064.5 | –
293.6 K | – | 0.167
303.2 K | 1057.5 | –
303.3 K | – | 0.166
313.2 K | 1051 | –
313.4 K | – | 0.163
323.2 K | 1045.1 | –
323.5 K | – | 0.163
333.2 K | 1040.6 | –
333.7 K | – | 0.153
343.2 K | 1035.7 | –
344.2 K | – | 0.15

CCn1cc[n+](C)c1.N#CN=C=[N-] [1-ethyl-3-methylimidazolium dicyanamide]
Details | mass density [kg/m3] | thermal conductivity [W/m/K]
293.2 K | 1107.5 | –
293.4 K | – | 0.183
303.2 K | 1100.4 | –
303.3 K | – | 0.179
313.1 K | – | 0.178
313.2 K | 1093.5 | –
323 K | – | 0.181
323.2 K | 1087 | –
333.2 K | 1081 | 0.17
343.2 K | 1076.1 | –
343.4 K | – | 0.165
